The results in this text go back to patent US6936630B2, “Substituted 1-aryl-3-heteroaryl-thioureas and substituted 1-aryl-3-heteroaryl-isothioureas as antiatherosclerotic agents” (Wyeth, priority 1997, dated 2005).

One series relates to serum HDL cholesterol. Kind of series: in vivo test procedure measuring elevation of HDL cholesterol levels in cholesterol/cholic acid-fed rats. Also on record: species or system Male Sprague-Dawley rats. As to conditions: rats fed diet with 0.25% cholic acid and 1.0% cholesterol, 100 mg/kg/day in diet for 8 days, serum HDL cholesterol by FPLC; for change in vivo at 100 mg/kg/day: Rattus norvegicus, feed or water, 192 h, read-out: HDL Cholesterol Level Increase (%). The protocol:
Representative compounds according to the present invention were evaluated in an in vivo standard pharmacological test procedure which measured the ability of the compounds to elevate HDL cholesterol levels. The following describes the procedure used and results obtained. Male Sprague-Dawley rats weighing 200-225 g were housed two per cage and fed Purina Rodent Chow Special Mix 5001-S supplemented with 0.25% cholic acid and 1.0% cholesterol and water ad libitum for 8 days. Each test substance was administered to a group of six rats fed the same diet with the test diet mixed in as 0.005-0.1% of the total diet. Body weight and food consumption were recorded prior to diet administration and at termination. The test substances were administered at a dosage of 100 mg/kg/day.
At termination, blood was collected from anesthetized rats and the serum was separated by centrifugation. Total serum cholesterol was assayed using the Sigma Diagnostics enzymatic kit for the determination of cholesterol, Procedure No. 352, modified for use with ninety-six well microtiter plates. After reconstitution with water the reagent contains 300 U/l cholesterol oxidase, 100 U/l cholesterol esterase, 1000 U/l horse radish peroxidase, 0.3 mmoles/l 4-aminoantipyrine and 30.0 mmoles/l p-hydroxybenzene sulfonate in a pH 6.5 buffer. In the reaction, cholesterol was oxidized to produce hydrogen peroxide which was used to form a quinoneimine dye. The concentration of dye formed was measured spectrophotometrically by absorbance at 490 nm after incubation at 25° C. for 30 minutes. The concentration of cholesterol was determined for each serum sample relative to a commercial standard from Sigma.
HDL cholesterol concentrations in serum were determined by separation of lipoprotein classes by fast protein liquid chromatography (FPLC) by a modification of the method of Kieft et al., J. Lipid Res., 32 (1991), 859-866. Using this methodology, […] of serum was injected onto Superose 12 and Superose 6 (available from Pharmacia), in series, with a column buffer of 0.05 M Tris (2-amino-2-hydroxymethyl-1,3-propanediol) and 0.15 M sodium chloride at a flow rate of 0.5 mL/min. The eluted sample was mixed on line with Boehringer-Mannheim cholesterol reagent pumped at 0.2 mL/min. The combined eluents were mixed and incubated on line through a knitted coil (available from Applied Biosciences) maintained at a temperature of 45° C. The eluent was monitored by measuring absorbance at 490 nm and gave a continous absorbance signal proportional to the cholesterol concentration. The relative concentration for each lipoprotein class was calculated as the percent of total absorbance. HDL cholesterol concentration in serum, was calculated as the percent of total cholesterol as determined by FPLC multiplied by the total serum cholesterol concentration.
Test compounds were administered at a dose of 100 mg/kg for 8 days.

The term melting point denotes the temperature of the solid-liquid transition. In the case of `Cc1ccc(Cl)cc1NC(=S)Nc1nccs1` [Example 1, 1-(5-Chloro-2-methyl-phenyl)-3-(thiazol-2-yl)-thiourea], the melting point was 197 to 198 °C. In addition, the change in vivo at 100 mg/kg/day in the series with serum HDL cholesterol stood at 65%.

As for `Cc1ccc(Cl)cc1NC(=S)Nc1nc2ccccc2s1` [Example 2, 1-(Benzothiazol-2-yl)-3-(5-chloro-2-methyl-phenyl)-thiourea], in the series on serum HDL cholesterol, the change in vivo at 100 mg/kg/day amounted to 6%.

Take `Cc1ccc(Cl)cc1NC(=S)Nc1nc2ccc3ccccc3c2s1` [Example 3, 1-(5-Chloro-2-methyl-phenyl)-3-(naphtho[2,1-d]thiazol-2-yl)-thiourea]: the change in vivo at 100 mg/kg/day in the series with serum HDL cholesterol was found to be 0.3%.

`Cc1coc(NC(=S)Nc2cc(Cl)ccc2C)n1` [Example 4, 1-(5-Chloro-2-methyl-phenyl)-3-(4-methyl-oxazol-2-yl)-thiourea] yielded a melting point of 207 to 208 °C. Further, the change in vivo at 100 mg/kg/day in the series with serum HDL cholesterol is 158%.

In the case of `Cc1nnc(NC(=S)Nc2cc(Cl)ccc2C)s1` [Example 5, 1-(5-Chloro-2-methyl-phenyl)-3-(5-methyl-[1,3,4]thiadiazol-2-yl)-thiourea], the change in vivo at 100 mg/kg/day in the series on serum HDL cholesterol is 69%.

On to `Cc1ccc(Cl)cc1NC(=S)Nc1ccn(C)n1` [Example 6, 1-(5-Chloro-2-methyl-phenyl)-3-(1-methyl-1H-pyrazol-3-yl)-thiourea], for which the melting point fell in the range of 217 to 218 °C. In addition, in the series on serum HDL cholesterol, the change in vivo at 100 mg/kg/day was -11%.

`Cc1ccc(Cl)cc1NC(=S)Nc1cc[nH]n1` [Example 7, 1-(5-Chloro-2-methyl-phenyl)-3-(1H-pyrazol-3-yl)-thiourea] showed a melting point of 221 to 222 °C. Also, the change in vivo at 100 mg/kg/day with serum HDL cholesterol stood at 97%.

Consider `Cc1ccc(Cl)cc1NC(=S)Nc1c(C)nn(C)c1C` [Example 8, 1-(5-Chloro-2-methyl-phenyl)-3-(1,3,5-trimethyl-1H-pyrazol-4-yl)-thiourea], for which the melting point was 176 to 177 °C. Further, the change in vivo at 100 mg/kg/day in the series with serum HDL cholesterol came to 110%.

For `Cc1csc(NC(=S)Nc2cc(Cl)ccc2C)n1` [Example 9, 1-(5-Chloro-2-methyl-phenyl)-3-(4-methyl-thiazol-2-yl)-thiourea], the melting point was 188 °C. Further, the change in vivo at 100 mg/kg/day in the series with serum HDL cholesterol was determined as 79%.

`Cc1ccc(Cl)cc1NC(=S)Nc1nc(C)c(C)s1` [Example 10, 1-(5-Chloro-2-methyl-phenyl)-3-(4,5-dimethyl-thiazol-2-yl)-thiourea]: the melting point was in the range of 188 to 189 °C. Moreover, in the series on serum HDL cholesterol, the change in vivo at 100 mg/kg/day amounted to 41%.

In turn, `CCOC(=O)Cc1csc(NC(=S)Nc2cc(Cl)ccc2C)n1` [Example 11, {2-[3-(5-Chloro-2-methyl-phenyl)-thioureido]-thiazol-4-yl}-acetic acid ethyl ester] gave a melting point of 177 to 179 °C. In addition, the change in vivo at 100 mg/kg/day in the series with serum HDL cholesterol is 2%.

For `Cc1cc(NC(=S)Nc2cc(Cl)ccc2C)sn1` [Example 12, 1-(5-Chloro-2-methyl-phenyl)-3-(3-methyl-isothiazol-5-yl)-thiourea], the melting point is 187 to 188 °C (dec.). For the same compound, the change in vivo at 100 mg/kg/day in the series with serum HDL cholesterol was 134%.

As for `Cc1nc2cc(NC(=S)Nc3cc(Cl)ccc3C)ccc2s1` [Example 13, 1-(5-Chloro-2-methyl-phenyl)-3-(2-methyl-benzothiazol-5-yl)-thiourea], the melting point lay within 173 to 174 °C. The change in vivo at 100 mg/kg/day in the series with serum HDL cholesterol amounted to 36%.

As to `CCc1nnc(NC(=S)Nc2cc(Cl)ccc2C)s1` [Example 14, 1-(5-Chloro-2-methyl-phenyl)-3-(5-ethyl-[1,3,4]thiadiazol-2-yl)-thiourea], in the series on serum HDL cholesterol, the change in vivo at 100 mg/kg/day is 90%.

Compound `Cc1cccc(Cl)c1NC(=S)Nc1c(C)nn(C)c1C` [Example 15, 1-(2-Chloro-6-methyl-phenyl)-3-(1,3,5-trimethyl-1H-pyrazol-4-yl)-thiourea] gave a melting point of 201 to 202 °C. For the same compound, in the series with serum HDL cholesterol, the change in vivo at 100 mg/kg/day came to 58%.

`Cc1cc(Cl)ccc1NC(=S)Nc1c(C)nn(C)c1C` [Example 16, 1-(4-Chloro-2-methyl-phenyl)-3-(1,3,5-trimethyl-1H-pyrazol-4-yl)-thiourea 0.12 solvate with acetic acid ethyl ester]: the “HDL Cholesterol Level Increase (%)” value in the series with serum HDL cholesterol is given as 104%.

As for `Cc1coc(NC(=S)Nc2ccc(Cl)cc2C)n1` [Example 17, 1-(4-Chloro-2-methyl-phenyl)-3-(4-methyl-oxazol-2-yl)-thiourea], the melting point is 214 °C (dec.). The change in vivo at 100 mg/kg/day in the series on serum HDL cholesterol was 134%.

As for `Cc1coc(NC(=S)Nc2c(C)cccc2Cl)n1` [Example 18, 1-(2-Chloro-6-methyl-phenyl)-3-(4-methyl-oxazol-2-yl)-thiourea], the melting point is 222 °C (dec.). For the same compound, the change in vivo at 100 mg/kg/day with serum HDL cholesterol came to 193%.

For `CCN(C(=S)Nc1cc(Cl)ccc1C)c1c(C)nn(C)c1C` [Example 19, 3-(5-Chloro-2-methyl-phenyl)-1-ethyl-1-(1,3,5-trimethyl-1H-pyrazol-4-yl)-thiourea], the melting point was 144 to 145 °C. In addition, the change in vivo at 100 mg/kg/day with serum HDL cholesterol was 79%.

As to `CS/C(=N/c1c(C)nn(C)c1C)Nc1cc(Cl)ccc1C` [Example 20, (E)-1-(5-Chloro-2-methyl-phenyl)-2-methyl-3-(1,3,5-trimethyl-1H-pyrazol-4-yl)-isothiourea], the melting point lay within 134 to 135 °C. In addition, the change in vivo at 100 mg/kg/day in the series on serum HDL cholesterol came out at 35%.

Turning to `CCN(C(=Nc1cc(Cl)ccc1C)SC)c1c(C)nn(C)c1C.Cl` [Example 21, 3-(5-Chloro-2-methyl-phenyl)-1-ethyl-2-methyl-1-(1,3,5-trimethyl-1H-pyrazol-4-yl)-isothiourea 1:1 salt with hydrochloric acid], in the series on serum HDL cholesterol, the “HDL Cholesterol Level Increase (%)” value stood at 29%.
